Test results reported in patent US20110003767A1, “Inhibitors of Acetyl-CoA Carboxylase for Treatment of Neuronal Hypometabolism” (NEUERA PHARMACEUTICALS, INC., priority 2007, published 2011).
Values after ≈ are worked out from the molar mass of the structure shown. “Also recorded” adds a separate entry of the source. Like-named read-outs stand apart in the source and are kept apart here. Each block holds one molecule with its values, some of them ahead of it.

Assays:
[1] = tested on: plasma beta-hydroxybutyrate (BHB); assay: Mouse pharmacokinetic (PK) study: plasma BHB after oral (po) and intraperitoneal (ip) dosing of TOFA; format: in vivo; conditions: for Mean BHB levels: mouse plasma
Protocol: (§1) Purpose: Determine blood levels of ketone bodies after oral (po) and intraperitoneal (ip) dosing of TOFA at different time points in the mouse. Animals: 75 ICR male mice 6 to 7 weeks old were used. Each mouse weighed between 20-30 grams. General Study Design: Animals (housed 3/cage) were acclimated for at least 3 days prior to dosing. Mice were given either a single po dose (ranging from 0.5 mg/kg, to 5 mg/kg) of compound, or a single ip dose (1 mg/kg). Animals were anesthetized for blood collection at the times 0.5, 1, 2 and 3 hours. Whole blood (˜0.4 mls) was collected via cardiac puncture and collected into sodium heparin (Na Heparin, 1:9 ratio) anticoagulant. Blood was centrifuged for 8 minutes at 13,000 rpm to isolate plasma. The plasma was transferred into pre-labeled, color-coded eppendorf tubes and frozen at −70° C. […] Plasma levels of beta-hydroxybutyrate (BHB) were determined using a beta-hydroxybutyrate detection kit following manufacturer's directions (StanBio Inc.). Materials: Compound, mouse gavage needles, vehicle, Isoflurane, 51 1 cc syringes w/26 g needles for blood collection, 63 eppendorf tubes for blood collection, 63 eppendorf tubes for plasma storage, centrifuge, container for sample storage, container for plasma shipment w/dry ice. AC-8632 (5-(tetradecyloxy)-2-furan-carboxylic acid (TOFA)) is a white crystalline solid, 100% active compound by weight. It is insoluble in aqueous solutions. It is soluble in ethanol (1 mg/ml), DMSO (2 mg/ml) and DMF (10 mg/ml). For maximum solubility in aqueous buffers, AC-8632 should first be dissolved in DMF and then diluted with the aqueous buffer of choice. AC-8632 was solubilized at a concentration of 0.5 mg/ml in a 1:1 solution of DMF::PBS (pH 7.2). For ip treatment, AC-8632 was mixed with DMSO at 2 mg/ml. Results: AC-8632 (TOFA) elevated serum BHB levels at each dose from 0.5 mg-kg to 5 mg/kg. Levels of BHB continued to rise during the 3 hour time period with highest levels present at the 3 hour time point. […] Both po and ip dosing led to elevation of plasma BHB at the 3 hour time point.

[2] = Solubility of AC-8632; format: physicochemical; conditions: for solubility: organic solvent or mixture
Protocol: as §1

[3] = tested on: plasma beta-hydroxybutyrate (BHB); assay: Mouse pharmacokinetic (PK) study of AC-0417-9: plasma BHB after oral dosing; format: in vivo; conditions: single po dose of 3 g/kg
Protocol: Purpose: Determine blood levels of ketone bodies after oral dosing of AC-0417-9 (3,3-Dimethylhexanoate, monoglyceride) at different time points in the mouse. Animals: 12 ICR male mice 6 to 7 weeks old were used. Each mouse weighed between 20-30 grams. General Study Design: Animals (housed 3/cage) were acclimated for at least 3 days prior to dosing. Mice were given a single po dose of 3 g/kg. Animals were anesthetized for blood collection at the times 0.5, 1, 2 and 3 hours. Whole blood (˜0.4 mls) was collected via cardiac puncture and collected into sodium heparin (Na Heparin, 1:9 ratio) anticoagulant. Blood was centrifuged for 8 minutes at 13,000 rpm to isolate plasma. The plasma was transferred into pre-labeled, color-coded eppendorf tubes and frozen at −70° C. […] Plasma levels of beta-hydroxybutyrate (BHB) were determined using a beta-hydroxybutyrate detection kit following manufacturer's directions (StanBio Inc.). Materials: Compound, mouse gavage needles, vehicle, Isoflurane, 1 cc syringes w/26 g needles for blood collection, eppendorf tubes for blood collection, eppendorf tubes for plasma storage, centrifuge, container for sample storage, container for plasma shipment w/dry ice. AC-0417-9 is a clear liquid, 100% active compound by weight. […] Levels of BHB continued to rise during the 3 hour time period with highest levels present at the 3 hour time point.

[4] = tested on: MPTP lesioned mice; assay: Neuroprotective effects of an ACC inhibitor in MPTP lesioned mice; format: in vivo; conditions: MPTP lesioned C57BL6 mice, oral gavage 0.001-5 mg/kg/day
Protocol: Neuroprotective effects of an ACC inhibitor in MPTP lesioned mice. 1-methyl-4-phenyl-1,2,3,6-tetrahydropyridine (MPTP), blocks complex I (NADH-ubiquinone oxidoreductase) of the mitochondrial electron transport chain, and causes typical symptoms of Parkinson's disease (PD) and the loss of dopaminergic neurons. C57BL6 mice receive daily orally gavage of CP-610431 at doses ranging from 0.001-5 mg/kg/day for seven days before they are lesioned with MPTP. During the 7 days of MPTP treatment animals will continue treatment with compound 1 or with a placebo. At the end of seven days animals are tested for behavioral effects of MPTP treatment and histopathology is performed.
Three groups of 10 animals are used for this experiment. Group 1 is treated with CP-610431 and lesioned with MPTP, Group 2 is treated with placebo and lesioned with MPTP, and Group 3 is treated with placebo and sham lesioned. After seven days of MPTP treatment behavior and motor skills are tested on all mice. Three tests are used to assess protective behavioral effects: Open Field behavior, Beam Walking test, and Rota Rod test. […]
Dopamine histopathology is immunohistochemically evaluated comparing tyrosine-hydroxylase-positive (TH+) neurons in the substantia nigra density of TH+ nerve terminals in the striatum on the lesioned side of drug treated and control animals. […]

[5] = tested on: Acetyl-CoA carboxylase (ACC), CT (carboxyltranferase) reaction; conditions: cited from earlier work

- solubility ([2]; DMF, read-out: solubility in DMF): 10000 µg/mL (≈ 30.8 mM)
- solubility ([2]; DMSO, read-out: solubility in DMSO): 2000 µg/mL (≈ 6.16 mM)
- solubility in aqueous solutions ([2]; aqueous solutions): insoluble
- solubility ([2]; ethanol, read-out: solubility in ethanol): 1000 µg/mL (≈ 3.08 mM)
Compound: CCCCCCCCCCCCCCOc1ccc(C(=O)O)o1 [AC-8632, 5-(tetradecyloxy)-2-furan-carboxylic acid]
- Mean BHB levels ([1]; 0.5 mg/kg po, 0 hr): 0.1353 mM
- Mean BHB levels ([1]; 0.5 mg/kg po, 0.5 hr): 0.2087 mM
- Mean BHB levels ([1]; 0.5 mg/kg po, 1 hr): 0.236 mM
- Mean BHB levels ([1]; 0.5 mg/kg po, 2 hr): 0.2427 mM
- Mean BHB levels ([1]; 0.5 mg/kg po, 3 hr): 0.3473 mM
- Mean BHB levels ([1]; 1 mg/kg ip, 0 hr): 0.1353 mM
- Mean BHB levels ([1]; 1 mg/kg ip, 0.5 hr): 0.1723 mM
- Mean BHB levels ([1]; 1 mg/kg ip, 1 hr): 0.177 mM
- Mean BHB levels ([1]; 1 mg/kg ip, 2 hr): 0.209 mM
- Mean BHB levels ([1]; 1 mg/kg ip, 3 hr): 0.2163 mM
- Mean BHB levels ([1]; 1 mg/kg po, 0 hr): 0.1353 mM
- Mean BHB levels ([1]; 1 mg/kg po, 0.5 hr): 0.2093 mM
- Mean BHB levels ([1]; 1 mg/kg po, 1 hr): 0.2187 mM
- Mean BHB levels ([1]; 1 mg/kg po, 2 hr): 0.2827 mM
- Mean BHB levels ([1]; 1 mg/kg po, 3 hr): 0.2973 mM
- Mean BHB levels ([1]; 2 mg/kg po, 0 hr): 0.1353 mM
- Mean BHB levels ([1]; 2 mg/kg po, 0.5 hr): 0.2153 mM
- Mean BHB levels ([1]; 2 mg/kg po, 1 hr): 0.1497 mM
- Mean BHB levels ([1]; 2 mg/kg po, 2 hr): 0.2127 mM
- Mean BHB levels ([1]; 2 mg/kg po, 3 hr): 0.339 mM
- Mean BHB levels ([1]; 5 mg/kg po, 0 hr): 0.1353 mM
- Mean BHB levels ([1]; 5 mg/kg po, 0.5 hr): 0.106 mM
- Mean BHB levels ([1]; 5 mg/kg po, 1 hr): 0.111 mM
- Mean BHB levels ([1]; 5 mg/kg po, 2 hr): 0.323 mM
- Mean BHB levels ([1]; 5 mg/kg po, 3 hr): 0.259 mM
- difference of BHB levels by dose or by route of administration ([1]; mouse, 0.5-5 mg/kg po, 1 mg/kg ip): did not differ significantly
- time point of highest BHB levels ([1]; mouse, 3 hour time period, po and ip): 3 h
- serum BHB levels (effect in words) ([1]; mouse, each dose from 0.5 to 5 mg/kg): elevated

Compound: CCCC(C)(C)CC(=O)OCC(O)CO (stereo not shown) [AC-0417-9, 3,3-Dimethylhexanoate, monoglyceride]
- serum BHB levels (effect in words) [3]: elevation; also recorded: elevate
- time point of highest BHB levels ([3]; 3 hour time period): 3 h

Compound: CCN(CC)C(=O)[C@@H]1CCCN(C2CCN(C(=O)c3c4ccccc4cc4ccccc34)CC2)C1 [CP-610431, R-1′-(anthracene-9-carbonyl)-N,N-diethyl-1,4′-bipiperidine-3-carboxamide]
- behavior and motor skills (Open Field, Beam Walking, Rota Rod) [4]: Improved
- number of TH+ neurons ([4]; substantia nigra): Increased

Compound: O=C(c1c2ccccc2cc2ccccc12)N1CCC(N2CCC[C@@H](C(=O)N3CCOCC3)C2)CC1 [CP-640186, [(3R)-1-[1-(anthracene-9-carbonyl)piperidin-4-yl]piperidin-3-yl]-morpholin-4-ylmethanone]
- inhibition of the CT reaction of ACC (in words) [5]: potent, reversible, isozyme-nonselective inhibitors
